ChEMBL document CHEMBL5537150, “Synthesis of melampomagnolide B derivatives as potential anti-Triple Negative Breast Cancer agents” (Eur J Med Chem, 2024)
Calls of active or inactive are those of the source. No cut-off for these calls is given here.

What was measured:
[1] = tested on: MDA-MB-468; assay: Induction of cell cycle arrest in human MDA-MB-468 cells assessed as decrease in accumulation of cells at G1 phase at 0.2 to 2 uM incubated for 48 hrs by RNase/PI staining based flow cytometric analysis; assay type: functional; details: dose 0.2-2 µM
[2] = tested on: MDA-MB-231; assay: Inhibition of NF-kappaB signalling pathway in human MDA-MB-231 cells assessed as downregulation of nuclear p65 expression at 0.2 to 2 uM incubated for 48 hrs by Western blotting analysis; assay type: cell-based; details: dose 0.2-2 µM
[3] = tested on: 4T1; assay: Antitumor activity against mouse 4T1 cells implanted in Balb/c mouse assessed as decrease in spleen weight at 10 mg/kg,ip administrated every two days for 20 days; assay type: functional, organism-based; details: time 20.0 day
[4] = tested on: SUM-159-PT; assay: Antiproliferative activity against human SUM159 cells assessed as inhibition of cell growth incubated for 72 hrs by MTT assay; assay type: functional, cell-based
[5] = tested on: MDA-MB-468; assay: Induction of cell cycle arrest in human MDA-MB-468 cells assessed as downregulation of Cyclin E1 protein expression incubated for 48 hrs by Western blotting analysis; assay type: functional, cell-based
[6] = tested on: MDA-MB-231; assay: Antimigratory activity in human MDA-MB-231 cells assessed as downregulation of Vimentin protein expression incubated for 48 hrs by Western blotting analysis; assay type: functional, cell-based
[7] = tested on: MDA-MB-231; assay: Induction of cell cycle arrest in human MDA-MB-231 cells assessed as downregulation of Cyclin B1 protein expression incubated for 48 hrs by Western blotting analysis; assay type: functional, cell-based
[8] = tested on: MCF7; assay: Antiproliferative activity against human MCF7 cells assessed as inhibition of cell growth incubated for 72 hrs by MTT assay; assay type: functional, cell-based; details: MCF7, 72 h
[9] = tested on: MDA-MB-468; assay: Induction of cell cycle arrest in human MDA-MB-468 cells assessed as increase in accumulation of cells at S phase at 0.2 to 2 uM incubated for 48 hrs by RNase/PI staining based flow cytometric analysis; assay type: functional; details: dose 0.2-2 µM
[10] = tested on: MDA-MB-468; assay: Induction of apoptosis in human MDA-MB-468 cells at 0.5 uM incubated for 48 hrs by annexin-V-APC/PI staining based flow cytometric analysis (reference value: 5.38 +/- 1.63 %); assay type: functional
[11] = tested on: MDA-MB-468; assay: Induction of apoptosis in human MDA-MB-468 cells at 0.2 uM incubated for 48 hrs by annexin-V-APC/PI staining based flow cytometric analysis (reference value: 5.38 +/- 1.63 %); assay type: functional
[12] = tested on: MDA-MB-231; assay: Induction of apoptosis in human MDA-MB-231 cells assessed as downregulation of MCL-1 protein expression incubated for 48 hrs by Western blotting analysis; assay type: functional, cell-based
[13] = tested on: MDA-MB-468; assay: Antimigratory activity in human MDA-MB-468 cells assessed as downregulation of Vimentin protein expression incubated for 48 hrs by Western blotting analysis; assay type: functional, cell-based
[14] = tested on: MDA-MB-468; assay: Antiproliferative activity against human MDA-MB-468 cells assessed as inhibition of cell growth incubated for 72 hrs by MTT assay; assay type: functional, cell-based; details: MDA-MB-468, 72 h
[15] = tested on: NIH3T3; assay: Cytotoxicity against mouse 3T3 cells at 1 uM incubated for 72 hrs by MTT assay; assay type: toxicity, cell-based; details: nih3t3, 72 h
[16] = tested on: MDA-MB-231; assay: Induction of cell cycle arrest in human MDA-MB-231 cells assessed as downregulation of Cyclin E1 protein expression incubated for 48 hrs by Western blotting analysis; assay type: functional, cell-based
[17] = tested on: MDA-MB-468; assay: Induction of cell cycle arrest in human MDA-MB-468 cells assessed as downregulation of Cdc25c protein expression incubated for 48 hrs by Western blotting analysis; assay type: functional, cell-based
[18] = tested on: MDA-MB-231; assay: Antimigratory activity in human MDA-MB-231 cells assessed as downregulation of N-cadherin protein expression incubated for 48 hrs by Western blotting analysis; assay type: functional, cell-based
[19] = tested on: MDA-MB-231; assay: Induction of apoptosis in human MDA-MB-231 cells assessed as upregulation of Bax protein expression incubated for 48 hrs by Western blotting analysis; assay type: functional, cell-based
[20] = Toxicity in Balb/c mouse implanted with mouse 4T1 cells assessed as decrease in body weight at 10 mg/kg,ip administrated every two days for 20 days; assay type: organism-based; details: in vivo, 480 h, time 20 day
[21] = tested on: MDA-MB-468; assay: Induction of cell cycle arrest in human MDA-MB-468 cells assessed as downregulation of Cyclin B1 protein expression incubated for 48 hrs by Western blotting analysis; assay type: functional, cell-based
[22] = tested on: MDA-MB-468; assay: Antimigratory activity in human MDA-MB-468 cells assessed as reduction in number of migrated cells incubated for 48 hrs by crystal violet staining based transwell assay; assay type: functional, cell-based
[23] = tested on: MDA-MB-231; assay: Inhibition of NF-kappaB signalling pathway in human MDA-MB-231 cells assessed as effect on total p65 protein level at 0.2 to 2 uM incubated for 48 hrs by Western blotting analysis; assay type: cell-based; details: dose 0.2-2 µM
[24] = tested on: MDA-MB-231; assay: Induction of apoptosis in human MDA-MB-231 cells at 2 uM incubated for 48 hrs by annexin-V-APC/PI staining based flow cytometric analysis (reference value: 1.81 +/- 0.47 %); assay type: functional
[25] = tested on: MDA-MB-468; assay: Induction of apoptosis in human MDA-MB-468 cells at 2 uM incubated for 48 hrs by annexin-V-APC/PI staining based flow cytometric analysis (reference value: 5.38 +/- 1.63 %); assay type: functional
[26] = tested on: MDA-MB-231; assay: Inhibition of NF-kappaB signalling pathway in human MDA-MB-231 cells assessed as downregulation of IkappaBalpha phosphorylation at 0.5 to 2 uM incubated for 48 hrs by Western blotting analysis; assay type: cell-based; details: dose 0.5-2 µM
[27] = tested on: MDA-MB-231; assay: Induction of cell cycle arrest in human MDA-MB-231 cells assessed as decrease in accumulation of cells at G1 phase at 0.2 to 2 uM incubated for 48 hrs by RNase/PI staining based flow cytometric analysis; assay type: functional; details: dose 0.2-2 µM
[28] = tested on: MDA-MB-231; assay: Antimigratory activity in human MDA-MB-231 cells assessed as reduction in number of migrated cells incubated for 48 hrs by crystal violet staining based transwell assay; assay type: functional, cell-based
[29] = tested on: MDA-MB-468; assay: Antimigratory activity in human MDA-MB-468 cells assessed as downregulation of N-cadherin protein expression incubated for 48 hrs by Western blotting analysis; assay type: functional, cell-based
[30] = tested on: MDA-MB-231; assay: Inhibition of NF-kappaB signalling pathway in human MDA-MB-231 cells assessed as upregulation of cytoplasmic p65 expression at 0.2 to 2 uM incubated for 48 hrs by Western blotting analysis; assay type: cell-based; details: dose 0.2-2 µM
[31] = tested on: MDA-MB-468; assay: Induction of apoptosis in human MDA-MB-468 cells at 1 uM incubated for 48 hrs by annexin-V-APC/PI staining based flow cytometric analysis (reference value: 5.38 +/- 1.63 %); assay type: functional
[32] = tested on: 4T1; assay: Antitumor activity against mouse 4T1 cells implanted in Balb/c mouse assessed as inhibition of tumor weight at 10 mg/kg,ip administrated every two days for 20 days; assay type: functional, organism-based; details: time 20.0 day
[33] = tested on: 4T1; assay: Antitumor activity against mouse 4T1 cells implanted in Balb/c mouse assessed as decrease in liver weight at 10 mg/kg,ip administrated every two days for 20 days; assay type: functional, organism-based; details: time 20.0 day
[34] = tested on: MDA-MB-231; assay: Induction of apoptosis in human MDA-MB-231 cells assessed as downregulation of BCL-xl protein expression incubated for 48 hrs by Western blotting analysis; assay type: functional, cell-based
[35] = tested on: MDA-MB-231; assay: Induction of cell cycle arrest in human MDA-MB-231 cells assessed as downregulation of Cdc2 protein expression incubated for 48 hrs by Western blotting analysis; assay type: functional, cell-based
[36] = tested on: MDA-MB-231; assay: Induction of cell cycle arrest in human MDA-MB-231 cells assessed as increase in accumulation of cells at G2/M phase at 0.2 to 2 uM incubated for 48 hrs by RNase/PI staining based flow cytometric analysis; assay type: functional; details: dose 0.2-2 µM

For C=C1C(=O)O[C@H]2[C@H]1CC/C(COc1ccc(-c3cc(=S)ss3)cc1)=C\CC[C@@]1(C)O[C@@H]21, the Activity [1] was “Active”, the inhibition [2] was “Active” and the Activity [3] was “Active”. For the same compound, the IC50 [4] was 1510 nM, the Activity [5] was “Dose-Dependent Effect” and the Activity [6] was “Dose-Dependent Effect”. The Activity [7] was “Dose-Dependent Effect”, the IC50 [8] was 3840 nM and the Activity [9] was “Active”. For the same compound, the Activity [10] was 5.77%, the Activity [11] was 4.32% and the Activity [12] was “Dose-Dependent Effect”. The Activity [13] was “Dose-Dependent Effect”, the IC50 [14] was 1520 nM and the Activity [15] was “Toxic”. For the same compound, the Activity [16] was “Dose-Dependent Effect”, the Activity [17] was “Dose-Dependent Effect” and the Activity [18] was “Dose-Dependent Effect”. For the same compound, the Activity [19] was “Dose-Dependent Effect”, the Activity [20] was “Toxic” and the Activity [21] was “Dose-Dependent Effect”. The Activity [22] was “Dose-Dependent Effect”, the inhibition [23] was “inactive” and the Activity [24] was 48.24%. The Activity [25] was 8.64%, the inhibition [26] was “Active” and the Activity [27] was “Active”. For the same compound, the Activity [28] was “Dose-Dependent Effect”, the Activity [29] was “Dose-Dependent Effect” and the inhibition [30] was “Active”. The Activity [31] was 6.4%, the Activity [32] was “Active” and the Activity [33] was “Active”. For the same compound, the Activity [34] was “Dose-Dependent Effect”, the Activity [35] was “Dose-Dependent Effect” and the Activity [36] was “Active”.
